Values quoted from earlier work, collected in US20230142073A1 (priority 2020, published 2023).
Read-outs that look alike come from different tables or passages of the source.

Tests used:
[1] = system: SARS-CoV-2 infected patients presenting with Severe Acute Respiratory Distress Syndrome (SARDS); conditions: 10 ppm NO inhaled; baseline 102
[2] = system: human patients with a coronavirus (SARS-CoV-2) infection
[3] = system: person with a SARS-CoV-2 infection and Severe Acute Respiratory Distress Syndrome (SARDS); conditions: iv 4 μg/kg/min; for PaO2: baseline 63; for PaO2/FiO2: baseline 70
Sars-Cov-2 ARDS patients = conditions: iv 2 μg/kg/min; in the following 6 hours; 19 patients; baseline 79; p-value=0.001
[4] = system: SARS-CoV-2 infected patients, exhibiting Acute Respiratory Distress Syndrome (ARDS); conditions: iv 10 μg/kg/min, mean maintenance 1.65 μg/kg/min
[5] = 10 patients, iv 4 then 12 μg/kg/min
[6] = 1 hour after almitrine infusion
[7] = 2 hours after almitrine infusion
[8] = 12 hours after almitrine infusion

SMILES	median PaO2/FiO2 after NO [1]	median PaO2/FiO2 ratio after almitrine administration ([2]; 10 patients, 135 before almitrine, iv 4 then 12 μg/kg/min)	increase of median PaO2/FiO2 ratio ([2]; 10 patients, from 135 before to 215 after almitrine)	cardiac index [2, 5]	right atrial pressures [2, 5]	number of patients with increased PaO2/FiO2 ([2]; out of 10 human patients (median age 70), iv 4 μg/kg/min for 30-45 min, then 12 μg/kg/min for 30-45 min, intubated and ventilated)	PaO2 [3, 6]	PaO2/FiO2 [3, 6]	PaO2 [3, 7]	PaO2/FiO2 [3, 7]	PaO2 [3, 8]	PaO2/FiO2 [3, 8]	median PaO2/FiO2 after almitrine (Sars-Cov-2 ARDS patients)	lower mortality ([4]; 32 patients)	side-effects ([4]; 32 patients)	responders (PaO2 increase of more than 20%) ([4]; 32 patients, NO inhaled in 75% of cases)	mean increase in PaO2 ([4]; responders)
[N]=O [NO, Nitric Oxide]	124 mmHg																
C=CCNc1nc(NCC=C)nc(N2CCN(C(c3ccc(F)cc3)c3ccc(F)cc3)CC2)n1.CS(=O)(=O)O [almitrine dimesylate, 6-[4-[bis(4-fluorophenyl)methyl]piperazin-1-yl]-2-N,4-N-bis(prop-2-enyl)-1,3,5-triazine-2,4-diamine methanesulfonic acid]		215 mmHg	80 mmHg	not affected	not affected	8	67 mm Hg	84 mmHg	130 mm Hg	216 mmHg	170 mm Hg	283 mmHg	117 mmHg	16%	no significant side-effects	66%	67%
